The source of these data is US12698324B2, “Cystic lymphangioma treatment drug” (National University Corporation University of Toyama, priority 2020, dated 2026).

Each structure is given as a SMILES string.

The subject of the experiment is cystic lymphangioma of PDGFRβ knockout mice. The experiment in a line: Therapy experiment in cystic lymphangioma of PDGFRβ knockout mice (diameter of LYVE1-positive lymph vessels). The experiment is classed as in vivo, mouse. As to conditions: intraperitoneal three times a week (Erlotinib 50 mg/kg; antibody 5 μg/body), compared with the group of PDGFRβ knockout mice without treatment. The procedure:
To PDGFRβ knockout mice, a neutralizing antibody against amphiregulin (AF989, R&D Systems Inc.) and Erlotinib having EGFR inhibitory activity (Selleck Biotech) were administered for the purpose of treating cystic lymphangioma. The neutralizing antibody against amphiregulin was dissolved in PBS at 25 μg/mL and administered intraperitoneally at 5 μg/body three times a week. Erlotinib was dissolved in DMSO at 50 mg/mL and administered intraperitoneally at 50 mg/kg three times a week. A group of PDGFRβ knockout mice without treatment and a control group of mice in which PDGFRβ was not knocked out were also prepared.
The tissues of PDGFRβ knockout mice were fixed with paraformaldehyde (PFA). Paraffin sections were prepared using fixed samples. The tissue sections were washed with a buffer and antigen-retrieved by heating in a microwave oven for 5 minutes using a commercial retrieval solution. Next, each sample was washed with a buffer solution and the tissues or the cells were subjected to a commercial blocking solution (room temperature, one hour).
Next, each sample was washed with a buffer and subjected to an anti-LYVE1 antibody (Abcam, a primary antibody) at optimum concentration (4° C., overnight). […] The obtained sample was observed and photographed with a fluorescence microscope.
The diameter of each lymph vessel was measured with ImageJ imaging software based on the photographed images. […]

In the case of `C#Cc1cccc(Nc2ncnc3cc(OCCOC)c(OCCOC)cc23)c1` [Erlotinib], the “diameter of dilated lymph vessels” value is “significantly reduced”.
